Data reported in article PMC12224939, “Trypstatin as a Novel TMPRSS2 Inhibitor with Broad‐Spectrum Efficacy against Corona and Influenza Viruses” (Advanced Science, 2025).
“Also recorded” adds a separate entry of the source. Bridge positions count the residues as written; N and C are the ends.

Experiments:
SARS-CoV-2 BA.5 = assay type: cell-based
[1] = system: IL-1ß, IL-6, CCL5, CXCL10, IRF1 expression in HAECs; assay type: cell-based, human
recombinant furin = target: T1, recombinant furin (Homo sapiens, UniProt P09958); assay: Furin activity assay; assay type: biochemical
T1 construct: purchased Bachem (so in the source) 1503-SE-010
Procedure: Furin activity assay was conducted as described previously with slight changes.^[ [42] ^] In brief, Trypstatin was mixed with recombinant furin (Bachem #1503‐SE‐010, final concentration 1.0 ng µL^−1) in assay buffer (25 mM Tris, 1 mM CaCl2, pH 9) for 30 min at room temperature before the addition of […] ‐L‐pyroglutamyl‐modified RTKR‐ AMC substrate (Bachem #4018149) per well with a final concentration of 1 mM CaCl2 in water. Fluorescence intensity was recorded in 2 min intervals for 5 h at an excitation wavelength of 355 nm and emission wavelength of 460 nm at 37 °C in a Cytation 3 (BioTek) microplate reader. The area under the curve values were normalized to the furin control. Hexa‐D‐arginine served as inhibitor control.

cathepsin L = target: T2, cathepsin L (Homo sapiens, UniProt P07711); assay: Cathepsin L activity assay; assay type: biochemical; details: recombinant enzyme
T2 construct: purchased R&D 952-Cy
Procedure: (§1) Cathepsin enzyme activity assays were performed as described before.^[ [42] ^] In brief, serially diluted compounds were mixed with recombinant cathepsin L (R&D #952‐Cy) in assay buffer (50 mM MES, 5 mM DTT, 1 mM EDTA, 0.005% Brij35, pH 6) or with cathepsin B from human placenta (Sigma Aldrich #C0150) in assay buffer (105.6 mM KH2PO4, 14.4 mM Na2HPO4, 1.2 mM EDTA, 0.07% Brij35, 2.4 mM L‐cysteine, pH 6). The protease‐inhibitor mixtures were incubated for 10 min at RT before the addition of the respective fluorogenic reporter substrate Z‐Leu‐Arg‐AMC (for cathepsin L; Bachem #4034611) or Z‐Arg‐Arg‐AMC (for cathepsin B; Bachem #4004789). The final concentrations were as follows: Cathepsin L 0.01 µg mL^−1, cathepsin B 1 µg mL^−1, Z‐Leu‐Arg‐AMC 40 µM or Z‐Arg‐Arg‐AMC 30 µM. Fluorescence intensity was recorded at an excitation wavelength of 380 nm and emission wavelength of 460 nm after 25 min at 37 °C (cathepsin L) or after 60 min at 40 °C (cathepsin B) in a Synergy H1 microplate reader (BioTek) with Gen 5 3.04 software.

[2] = target: T3, TMPRSS2 Syrian gold hamster (Mesocricetus auratus, UniProt A0A1U8C7C8); assay: Cellular hamster TMPRSS2 activity assay in transfected HEK293T cells; assay type: cell-based; details: compared with human TMPRSS2
T3 construct: encoding the respective transmembrane serine protease per well; host or cells: HEK293T
Procedure: Twenty thousand HEK293T cells were seeded in a 96‐well flat bottom plate. The next day, cells were transfected with 100 ng of an expression plasmid (Backbone: Twist Bioscience, EF1alpha mammalian expression vector) encoding the respective transmembrane serine protease per well using LT1 transfection reagent (TMPRSS2 human NCBI RefSeq: NP_005647.3; TMPRSS2 Syrian gold hamster NCBI RefSeq: XP_012971683.1; TMPRSS11D NCBI RefSeq: NP_004253.1; TMPRSS13 NCBI RefSeq: NP_001070731.1). In short, plasmid DNA was mixed in a 1:3 ratio with LT1 in a serum‐free medium and incubated for 20 min before the mixture was applied dropwise onto the cells. Sixteen hours post‐transfection, the medium was replaced by a serum‐free medium, and cells were treated with serial dilution of compounds in PBS. After 15 min of incubation at 37 °C, 100 µM of respective protease‐specific substrate (TMPRSS2: Boc‐QAR‐AMC, Bachem # 4017019; TMPRSS11D: Boc‐FSR‐AMC, Bachem # 4012340; TMPRSS13: Pyr‐RTKR‐AMC, Bachem #4018149) was added and incubated for 2 h at 37 °C. Fluorescence intensity was recorded at an excitation wavelength of 380 nm and emission wavelength of 460 nm in a Synergy H1 microplate reader (BioTek) with Gen 5 3.04 software. Values were background corrected for non‐transfected HEK293T‐cells. […]

Caco-2 cells = assay: Cytotoxicity assay (CellTiter-Glo); assay type: cell-based, human; details: 48 h, ATP levels, tested concentrations
Procedure: To assess the cytotoxicity of the inhibitors used, 10 000 Caco2 cells were seeded in a 96‐well flat bottom plate. The next day, the medium was replaced and cells were treated with serial dilutions of compounds or PBS as a control. After 48 h, cell viability was assessed by measuring ATP levels in cell lysates with a commercially available kit (CellTiter‐Glo, Promega) in an Orion II microplate reader with Simplicity 4.2 software.

[3] = target: T4, cathepsin B from human placenta (Homo sapiens, UniProt P07858); assay: Cathepsin B activity assay; assay type: biochemical; details: enzyme from human placenta
T4 construct: cathepsin B from human placenta (Sigma Aldrich #C0150); purchased Sigma Aldrich C0150; host or cells: human placenta (tissue-derived)
Procedure: as §1

TMPRSS14 (Matriptase) = target: T5, TMPRSS14 (Matriptase) (Homo sapiens, UniProt Q9Y5Y6); assay: Recombinant TMPRSS14 activity assay; assay type: biochemical; details: recombinant enzyme
T5 construct: purchased 3946
Procedure: In the next step, 50 µL of 20 µM BOC‐Gln‐Ala‐Arg‐AMC protease substrate (Bachem #4017019) in the case of TMPRSS2 and TMPRSS14 or 50 µL of 150 µM BOC‐Gln‐Arg‐Arg‐AMC (PeptaNova) in the case of TMPRSS1 was added and incubated for 2 h for TMPRSS2, or 5 mins in the case of TMPRSS1/14 at 37 °C. Fluorescence intensity was measured after 2 h at an excitation wavelength of 380 nm and emission wavelength of 460 nm in a SynergyTM H1 microplate reader (BioTek) with Gen5 3.04 software. […] Assays were performed in a total volume of 100 µL in quadruplicate wells of a 96 Nunc well plate (Thermo Scientific #10174221) with a final TMPRSS2 concentration of 20 nM. Initial velocities were measured in 50 s intervals for 15 min with excitation of 360 nm and emission of 460 nm in a SynergyTM H1 microplate reader. K m and V max were calculated from Michaelis–Menten plots using GraphPadPrism. The inhibitory constant K i was calculated from the IC50 values according to the Cheng–Prusoff equation (K i = IC50/(1 + [S]/K m)) for competitive reversible inhibitors.^[ [91] ^]

[4] = system: lentiviral pseudoparticles harboring VSV-G glycoprotein; assay type: cell-based
SARS-CoV-2 Delta = details: hamster, in vivo
recombinant ACE2 = target: T6, recombinant ACE2 (Homo sapiens, UniProt Q9BYF1); assay: Recombinant ACE2 assay; assay type: biochemical
T6 construct: purchased R&D 933-ZN
Procedure: To determine the activity of Trypstatin against ACE2, 25 µL of 0,4 µg mL^−1 recombinant ACE2 (R&D #933‐ZN) in assay buffer (75 mM Tris, 1 M NaCl, pH 7.5) was mixed with 25 µL of inhibitor for 15 min at 37 °C before addition of 50 µL of 40 µM of MCA‐YVADAPK(Dnp)‐OH substrate (R&D #ES007) and incubation for 5 min at 37 °C. Fluorescence intensity was measured after 5 min at an excitation wavelength of 320 nm and emission wavelength of 405 nm in a SynergyTM H1 microplate reader (BioTek) with Gen5 3.04 software.

T1 sequence (P09958 108-794): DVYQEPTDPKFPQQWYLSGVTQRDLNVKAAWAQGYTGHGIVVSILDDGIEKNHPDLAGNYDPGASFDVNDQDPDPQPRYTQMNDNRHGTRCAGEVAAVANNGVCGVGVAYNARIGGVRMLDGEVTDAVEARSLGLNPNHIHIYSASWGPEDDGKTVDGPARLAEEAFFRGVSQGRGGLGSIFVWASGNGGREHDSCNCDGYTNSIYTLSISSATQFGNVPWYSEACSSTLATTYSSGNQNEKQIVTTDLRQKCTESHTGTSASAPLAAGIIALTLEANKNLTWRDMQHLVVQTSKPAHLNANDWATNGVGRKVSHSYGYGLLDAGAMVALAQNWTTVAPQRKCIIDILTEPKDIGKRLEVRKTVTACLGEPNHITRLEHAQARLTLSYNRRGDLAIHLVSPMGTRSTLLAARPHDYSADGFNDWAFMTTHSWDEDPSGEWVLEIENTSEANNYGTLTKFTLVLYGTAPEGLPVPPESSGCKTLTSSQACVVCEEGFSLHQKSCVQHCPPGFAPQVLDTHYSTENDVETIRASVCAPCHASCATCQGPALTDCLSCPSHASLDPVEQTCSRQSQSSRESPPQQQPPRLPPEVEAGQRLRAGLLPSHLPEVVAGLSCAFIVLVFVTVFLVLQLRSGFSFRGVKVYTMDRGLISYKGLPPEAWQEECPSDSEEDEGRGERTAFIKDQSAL
T6 sequence (Q9BYF1 18-805): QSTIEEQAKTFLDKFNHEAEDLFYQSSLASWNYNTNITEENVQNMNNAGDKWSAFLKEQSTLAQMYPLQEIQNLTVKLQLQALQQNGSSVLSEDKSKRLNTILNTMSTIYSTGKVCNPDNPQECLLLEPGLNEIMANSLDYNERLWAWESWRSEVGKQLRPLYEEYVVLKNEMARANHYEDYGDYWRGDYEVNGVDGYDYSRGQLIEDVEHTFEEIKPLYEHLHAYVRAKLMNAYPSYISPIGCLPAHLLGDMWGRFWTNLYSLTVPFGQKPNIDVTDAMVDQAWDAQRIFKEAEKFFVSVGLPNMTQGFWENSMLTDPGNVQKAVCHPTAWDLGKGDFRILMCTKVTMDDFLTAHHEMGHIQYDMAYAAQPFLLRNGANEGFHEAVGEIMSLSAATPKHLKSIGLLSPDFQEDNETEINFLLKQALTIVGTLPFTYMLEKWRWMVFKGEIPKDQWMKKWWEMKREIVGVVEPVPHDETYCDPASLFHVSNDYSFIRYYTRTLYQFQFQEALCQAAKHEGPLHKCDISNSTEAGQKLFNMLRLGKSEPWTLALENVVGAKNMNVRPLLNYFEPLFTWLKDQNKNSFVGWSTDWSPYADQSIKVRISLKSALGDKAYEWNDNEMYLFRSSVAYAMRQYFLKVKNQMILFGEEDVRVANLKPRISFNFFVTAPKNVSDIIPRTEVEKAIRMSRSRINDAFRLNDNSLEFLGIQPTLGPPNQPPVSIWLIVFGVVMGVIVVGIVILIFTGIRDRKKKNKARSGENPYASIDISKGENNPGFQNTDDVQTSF
T3 sequence (A0A1U8C7C8 1-492): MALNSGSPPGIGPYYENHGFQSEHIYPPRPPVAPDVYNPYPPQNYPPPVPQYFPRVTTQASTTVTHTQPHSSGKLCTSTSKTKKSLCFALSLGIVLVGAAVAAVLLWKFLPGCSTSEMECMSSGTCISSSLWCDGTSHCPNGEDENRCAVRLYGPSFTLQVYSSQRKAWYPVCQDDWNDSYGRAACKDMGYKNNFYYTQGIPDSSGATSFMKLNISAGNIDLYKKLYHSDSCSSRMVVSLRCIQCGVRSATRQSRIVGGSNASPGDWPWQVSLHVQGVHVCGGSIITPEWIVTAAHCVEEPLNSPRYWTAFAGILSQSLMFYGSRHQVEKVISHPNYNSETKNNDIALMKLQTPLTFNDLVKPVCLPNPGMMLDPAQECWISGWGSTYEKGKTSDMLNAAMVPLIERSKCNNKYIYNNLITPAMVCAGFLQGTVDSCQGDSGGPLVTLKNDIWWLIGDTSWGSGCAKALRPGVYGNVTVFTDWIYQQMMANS
T5 sequence (Q9Y5Y6 whole entry): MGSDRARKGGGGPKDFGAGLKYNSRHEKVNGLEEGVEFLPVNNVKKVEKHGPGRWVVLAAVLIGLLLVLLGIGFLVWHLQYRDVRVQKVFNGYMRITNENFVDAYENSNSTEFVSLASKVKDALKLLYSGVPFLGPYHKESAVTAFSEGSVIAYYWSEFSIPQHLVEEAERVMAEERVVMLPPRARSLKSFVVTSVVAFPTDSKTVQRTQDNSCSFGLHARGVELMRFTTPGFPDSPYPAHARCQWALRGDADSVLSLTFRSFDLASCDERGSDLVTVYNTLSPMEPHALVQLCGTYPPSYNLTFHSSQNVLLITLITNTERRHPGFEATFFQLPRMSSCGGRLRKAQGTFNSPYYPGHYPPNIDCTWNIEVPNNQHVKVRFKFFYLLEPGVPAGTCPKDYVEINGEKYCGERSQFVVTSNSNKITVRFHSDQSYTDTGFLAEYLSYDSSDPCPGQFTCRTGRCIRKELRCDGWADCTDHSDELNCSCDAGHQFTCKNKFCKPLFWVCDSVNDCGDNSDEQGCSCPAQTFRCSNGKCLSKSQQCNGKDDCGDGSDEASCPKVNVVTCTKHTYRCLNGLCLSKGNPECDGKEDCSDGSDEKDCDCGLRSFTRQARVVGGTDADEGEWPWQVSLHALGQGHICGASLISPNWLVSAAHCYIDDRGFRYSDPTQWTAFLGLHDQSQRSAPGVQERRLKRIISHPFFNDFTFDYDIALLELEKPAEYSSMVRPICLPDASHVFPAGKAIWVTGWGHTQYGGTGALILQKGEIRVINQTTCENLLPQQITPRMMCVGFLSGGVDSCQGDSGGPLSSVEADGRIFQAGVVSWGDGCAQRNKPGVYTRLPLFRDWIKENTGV
T2 sequence (P07711 114-333): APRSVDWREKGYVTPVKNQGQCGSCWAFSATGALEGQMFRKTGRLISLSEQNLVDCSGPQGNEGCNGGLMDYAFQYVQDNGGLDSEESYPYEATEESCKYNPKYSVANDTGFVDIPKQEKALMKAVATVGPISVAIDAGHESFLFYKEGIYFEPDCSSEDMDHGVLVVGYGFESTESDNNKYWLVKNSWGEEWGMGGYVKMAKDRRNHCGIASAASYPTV

Sequence: VAACNLPIVRGPCRAFIQLWAFDAVKGKCVLFPYGGCQGNGNKFYSEKECREYCGVPGDGD (disulfide 4-54, 13-37, 29-50 (inferred)) [Trypstatin]
- reduction of SARS-CoV-2 BA.5 replication over 72 h (SARS-CoV-2 BA.5): up to four orders of magnitude
- effect on expression of inflammatory genes [1]: failed to reach significance; also recorded: does not have a significant anti-inflammatory effect
- inhibition of Furin (recombinant furin): did not inhibit; also recorded: does not inhibit
- inhibition of Cathepsin L (cathepsin L): did not inhibit
- inhibition of hamster TMPRSS2 [2]: IC50 values similar to those for human TMPRSS2; also recorded: blocks hamster and human TMPRSS2 activity with similar efficacies
- cytotoxicity / cell viability (Caco-2 cells): does not influence cell viability
- inhibition of Cathepsin B [3]: did not inhibit
- inhibition of TMPRSS14 (TMPRSS14 (Matriptase)): no effect
- effect on VSV-G-mediated pseudoparticle entry [4]: without affecting VSV‐G‐driven entry
- clinical symptoms (piloerection, weakness, fatigue, abnormal posture) (SARS-CoV-2 Delta): almost entirely absent
- infectious virus particles in BAL (TCID50) (SARS-CoV-2 Delta): significantly reduced
- side effects in hamsters (SARS-CoV-2 Delta): without observed side effects
- viral loads in BAL (qPCR) (SARS-CoV-2 Delta): significantly reduced
- inhibition of ACE2 (recombinant ACE2): did not inhibit; also recorded: does not inhibit
